Experimental data as given in patent US11559528B2, “BACE1 inhibition for the treatment of cancer” (The Cleveland Clinic Foundation, priority 2019, dated 2023).

Legend:
[1] = patients, Phase I to Phase III; cited from earlier work
[2] = test system: iPSC-derived M2 macrophages; assay: Fluorescent phagocytosis screening assay, iPSC-derived M2 macrophages against glioma cells; format: cell-based, human; conditions: for screen of drug libraries and known inhibitors for promoters of macrophage phagocytosis: hit: glioma cells and lung ADC cells
[3] = test system: H1002 and H146 lung cancer cells; assay: Cell titer viability assay on lung cancer cells; format: cell-based, human; conditions: indicated concentrations, 72 hours, n=3
Protocol: (A) Effects of BACE1 inhibitors on lung cancer cell proliferation. H1002 and H146 lung cancer cells were treated with the indicated concentrations of the BACE1 inhibitor AZD3293, MK-8931, AZD3839, or PF-06751979 (PF) for 72 hours. Cell viability was assessed by cell titer assay (n=3). (B-D) A preclinical trial of MK-8931 for lung cancer treatment in xenograft models. H1002 lung cancer cells (5×106) were transplanted into mouse right flank through subcutaneous injection to establish subcutaneous lung cancer xenografts. […] Tumors dissected from mice of each group were photographed (C) and weighed (D). […] Data are shown as mean SEM. p **<0.01, Student's t-test.

Compound	tolerability / safety in AD clinical trials [1]	macrophage phagocytosis against cancer cells [2]	screen of drug libraries and known inhibitors for promoters of macrophage phagocytosis: hit [2]	lung cancer cell proliferation (cell viability) [3]
CC#Cc1cncc(-c2ccc3c(c2)[C@@]2(N=C(C)C(N)=N2)[C@]2(CC[C@@H](OC)CC2)C3)c1 [AZD3293]	very safe for patients	promotes macrophage phagocytosis against cancer cells	hits	suppressed lung cancer cell proliferation
NC1=N[C@@](c2cccc(-c3cncnc3)c2)(c2ccnc(C(F)F)c2)c2cccc(F)c21 [AZD3839]	–	–	hits	suppressed lung cancer cell proliferation
Cn1cnc2c(F)c(Nc3ccc(Br)cc3Cl)c(C(=O)NOCCO)cc21 [AZD6244]	–	–	hits	–
C[C@@]1(c2nc(NC(=O)c3ncc(C(F)(F)F)cc3Cl)ccc2F)CO[C@@](C)(C(F)(F)F)C(N)=N1 [CNP520]	very safe for patients	promotes macrophage phagocytosis against cancer cells	hits	–
NC1=N[C@@]2(c3cc(NC(=O)c4cnc(C(F)F)cn4)ccc3F)CO[C@H](C(F)(F)F)[C@H]2CS1 [E2609]	–	promotes macrophage phagocytosis against cancer cells	hits	–
C[C@@]1(c2cc(NC(=O)c3ccc(C#N)cn3)ccc2F)C=CSC(N)=N1 [JNJ-54861911]	–	–	hits	–
CS[C@@]1(C(=O)Nc2ccc3[nH]nc(-c4ccc(OC(C)C)nc4)c3c2)CCN(CC(=O)N2CC=C(c3ccc(-c4ncn(C)n4)cc3)CC2)C1 [MK-8353]	–	–	hits	–
C[C@H]1C[C@H]2CSC(N)=N[C@@]2(c2nc(NC(=O)c3ccc(OC(F)F)cn3)cs2)CO1 [PF-06751979]	–	–	hits	suppressed lung cancer cell proliferation
